Experimental data taken from ChEMBL document CHEMBL5608221, “Innovative Therapeutic Approaches Targeting K-Ras: Analysis of Macrocyclic Compounds, Peptidomimetics, and Pyridopyrimidine Inhibitors” (ACS Med Chem Lett, 2024).

Biological target: GTPase KRas (Homo sapiens, UniProt P01116, G12V)
Test: Inhibition of GDP bound KRAS G12V mutant (unknown origin)

Chain of GTPase KRas (P01116 whole entry G12V): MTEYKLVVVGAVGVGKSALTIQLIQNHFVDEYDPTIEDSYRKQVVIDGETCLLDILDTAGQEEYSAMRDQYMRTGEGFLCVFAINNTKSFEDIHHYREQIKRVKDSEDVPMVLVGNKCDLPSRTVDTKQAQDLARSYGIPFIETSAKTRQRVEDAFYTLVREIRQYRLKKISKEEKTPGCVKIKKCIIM

| SMILES | IC50 |
| --- | --- |
| [2H]C([2H])([2H])N(c1nc(OC([2H])([2H])C23CCC([2H])([2H])N2C[C@]([2H])(F)C3)nc2c(F)c(-c3cc(O)cc4ccc(F)c(C#C)c34)ncc12)[C@H]1C[C@@H]1F (some centres not stated) | 0.216 nM |
| C#Cc1c(F)ccc2cc(O)cc(-c3ncc4c(N(C)[C@H]5C[C@@H]5F)nc(OCC56CCCN5CC(=C)C6)nc4c3F)c12 (some centres not stated) | 0.405 nM |
| C#Cc1c(F)ccc2cc(N)cc(-c3ncc4c(N(C)[C@H]5C[C@@H]5F)nc(OCC56CCCN5CC(=C)C6)nc4c3F)c12.OCC(F)(F)F (some centres not stated) | 1.99 nM |
| C#Cc1c(F)ccc2cc(O)cc(-c3ncc4c(N(C)[C@H]5C[C@@H]5F)nc(OCC56CCCN5CC(=C)C6)nc4c3F)c12.OCC(F)(F)F (some centres not stated) | 0.371 nM |
| C#Cc1c(F)ccc2cc(O)cc(-c3ncc4c(N(C)[C@H]5C[C@@H]5F)nc(OC[C@@]56CCCN5CC(=C)C6)nc4c3F)c12 | 0.246 nM |
| C#Cc1c(F)ccc2cc(O)cc(-c3ncc4c(N(C)[C@H]5C[C@@H]5F)nc(OC[C@]56CCCN5CC(=C)C6)nc4c3F)c12 | 0.589 nM |
| [2H]C([2H])([2H])N(c1nc(OC([2H])([2H])C23CCC([2H])([2H])N2C[C@@]([2H])(F)C3)nc2c(F)c(-c3cc(O)cc4ccc(F)c(C#C)c34)ncc12)[C@H]1C[C@@H]1F (some centres not stated) | 0.689 nM |
